Source: paper PMC12064818, “A general assay platform to study protein pharmacology using ligand-dependent structural dynamics” (Nature Communications, 2025)

Target: T1, FLuc-C-HiBiT (Photinus pyralis, UniProt P08659)
T1 construct: firefly luciferase with C-terminal HiBiT tag, E. coli expressed
Experiment: biochemical
Details: enzyme activity, 10 uM ATP; read-out: IC50 or SDR50 (mM) / FLuc E

T1 sequence (P08659 whole entry, looked up): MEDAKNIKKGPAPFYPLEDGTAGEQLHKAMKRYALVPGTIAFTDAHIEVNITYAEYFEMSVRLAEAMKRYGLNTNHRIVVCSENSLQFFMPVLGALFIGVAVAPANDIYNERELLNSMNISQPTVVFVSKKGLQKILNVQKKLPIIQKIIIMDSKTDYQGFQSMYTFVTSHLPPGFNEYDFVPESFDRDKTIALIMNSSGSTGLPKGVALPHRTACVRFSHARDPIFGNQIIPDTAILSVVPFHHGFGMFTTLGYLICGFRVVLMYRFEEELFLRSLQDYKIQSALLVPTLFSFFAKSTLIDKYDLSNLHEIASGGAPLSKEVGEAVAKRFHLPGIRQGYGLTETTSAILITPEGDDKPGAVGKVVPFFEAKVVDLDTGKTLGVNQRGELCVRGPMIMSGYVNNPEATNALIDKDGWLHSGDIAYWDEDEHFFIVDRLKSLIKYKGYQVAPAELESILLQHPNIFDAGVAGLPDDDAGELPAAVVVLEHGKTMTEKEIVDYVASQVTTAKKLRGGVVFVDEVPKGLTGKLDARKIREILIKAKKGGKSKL

Row | Compound | IC50 [µM]
1 | COc1ccc(-c2noc(-c3ccc(N4CCN(C)CC4)c([N+](=O)[O-])c3)n2)cc1 [NCGC00119282-01] | 15.7
2 | CN(C)c1ccc(NC(=O)c2ccc3c(c2)N(C)C2CCCCN2C3=O)cc1 (stereo not shown) [NCGC00452413-01] | 11.1
3 | CC(C)CN1CCNc2cc(-c3ccccc3)ncc2C1 [NCGC00411061-01] | 22.6
4 | COc1ccc(-c2ncc3c(n2)OCCN(CC2CC2)C3=O)cc1 [NCGC00413552-01] | 8.05
5 | Cc1ccc(C2=CC(c3ccccc3C)n3c(nc4ccccc43)N2)cc1 (stereo not shown) [NCGC00140747-01] | 4.42
6 | Cc1cc(CNC(=O)CC2C=C[S+](=O)([O-])C2)c2[nH]c(-c3ccccc3)c(C)c2c1 (stereo not shown) [NCGC00441154-01] | 11.1
7 | Fc1ccc(Nc2nc(-c3ccccc3F)no2)cc1 [NCGC00422310-01] | 9.89
8 | CC1CCCN(c2ncnc3c2cnn3-c2ccc(F)cc2)C1 (stereo not shown) [NCGC00139051-01] | 0.7
9 | COc1ccc(/C=C/c2ccc3c(c2)C(=O)N2CC[C@H](NC(=O)CCC(=O)O)[C@H]2C(=O)N3)cc1 [NCGC00391742-01] | 12.4
10 | c1ccc(-c2cn3c(n2)CO[C@@H](CNCc2cccs2)C3)cc1 [NCGC00393328-01] | 20.2
11 | Cc1ccc(NC(=O)c2ccc(CN3C(=O)NC4(CCOCC4)C3=O)cc2)cc1C [NCGC00454605-01] | 11.1
12 | COc1cc(OC)cc(C(=O)Nc2ccc(-c3nc4ccccc4s3)c(C)c2)c1 [NCGC00137814-01] | > 30
13 | CCn1ncc(NC(=O)Cn2ncc3cc(-c4ccc(C)cc4F)ccc32)n1 [NCGC00430893-01] | 12.4
14 | O=C([C@@H]1C[C@@H](O)[C@H](O)[C@@H]2NC(=S)N(c3ccc(OC(F)(F)F)cc3)[C@@H]21)N1CCCCC1 [NCGC00392138-01] | > 30
15 | O=C(NCc1ccc(F)cc1)Nc1cccc(-c2ccc(N3CCOCC3)nn2)c1 [NCGC00427604-01] | 1.76
16 | COc1ccc(-c2cc(N3CCCC(NC(=O)c4c[nH]c5ccccc45)C3)[nH]n2)cc1 (stereo not shown) [NCGC00437686-01] | 11.1
17 | Cc1ccc(-c2nc(C(=O)N(C)Cc3ccccc3)no2)cc1 [NCGC00447109-01] | 12.4
18 | CC(C)c1nc2c(c(-c3ccc(O)cc3)n1)CN(Cc1ccccc1)CC2 [NCGC00480075-01] | > 30
19 | O=C(c1cc(-c2ccccc2O)on1)N1CCCCC1 [NCGC00105578-01] | 9.89
20 | Oc1cc(-c2nc3ccccc3s2)cc2c1OCCN(Cc1cccn1-c1ccccn1)C2 [NCGC00240089-01] | > 30
21 | Cc1ccc(-c2nc3ccccc3s2)cc1NC(=O)c1ccc(-c2cccc(Cl)c2)o1 [NCGC00187468-01] | > 30
22 | Cc1ccc(-n2ncc3c(N4CCC(C(N)=O)CC4)ncnc32)cc1 [NCGC00139056-01] | 12.4

Row | Compound | IC50 [µM]
23 | COc1ccc2cc(C3CN(C(=O)CCc4n[nH]c(C)n4)CCO3)ccc2c1 (stereo not shown) [NCGC00430617-01] | 9.89
24 | O=C(Nc1ccc(Cl)cc1)Nc1ccc2n(c1=O)C[C@H]1C[C@@H]2CN(C(=O)c2ccc3ccccc3c2)C1 [NCGC00395236-01] | 12.4
25 | CCNC(=O)N[C@@H]1C=C[C@@H](c2c(C)nn(-c3ccc(C(F)(F)F)cc3)c2C)C1 [NCGC00397974-01] | 14.3
26 | COc1ccc(C(=O)NC2CCCN(c3cc(-c4ccc(F)cc4)n[nH]3)C2)cc1OC (stereo not shown) [NCGC00437488-01] | 11.1
27 | Cc1ccc(-c2noc(-c3ccccc3Br)n2)cc1 [NCGC00079622-01] | 1.57
28 | Cc1cccc(NC(=O)c2ccc(-c3ccccc3)s2)c1 [NCGC00114320-01] | 2.79
29 | CCc1ccc(NC(=O)N2CCCC(c3noc(COc4ccccc4)n3)C2)cc1 (stereo not shown) [NCGC00475587-01] | 2.79
30 | Cc1nn(-c2ccc(C(C)C)cc2)c(C)c1[C@@H]1C=C[C@@H](NC(=S)NCC(C)C)C1 [NCGC00391239-01] | 28.6
31 | COc1ccccc1-c1nc(-c2cccc(C(=O)O)c2)no1 [NCGC00168765-01] | 0.00624
32 | CC(C)(C)CN1CCNc2cc(Nc3ccccc3)ncc2C1 [NCGC00411260-01] | 7.18
33 | O=C(Nc1ccccc1-c1nc2ccccc2s1)c1ccccc1F [NCGC00636212-01] | > 30
34 | Cc1ccc(C2Cn3nnc(C(=O)N4CCC(C(=O)NCc5ccncc5)CC4)c3CO2)cc1 (stereo not shown) [NCGC00449555-01] | 11.1
35 | COc1ccc(-c2nc(-c3ccc(C(=O)O)cc3)no2)cc1 [NCGC00168104-02] | 0.111
36 | COCC(=O)N1CCc2nc(C)nc(-c3ccc(OC)cc3)c2C1 [NCGC00480441-01] | > 30
37 | Cc1cccc(NC(=O)c2c(N)sc3c2CCC(C)C3)c1 (stereo not shown) [NCGC00099772-01] | 9.89
38 | CCCCC(=O)Nc1cccc(-c2nc3ccccc3s2)c1 [NCGC00119159-01] | 11.1
39 | CC(=O)Nc1cc(-c2nc3ccccc3s2)ccc1C [NCGC00098099-01] | 7
40 | CC[S+](=O)([O-])c1cccc(C(=O)Nc2ccc(-c3nc4ccccc4s3)c(O)c2)c1 [NCGC00134166-03] | 4.42
41 | COc1cccc(CC(=O)Nc2ccc(-c3nc4ccccc4s3)cc2Cl)c1 [NCGC00137806-01] | > 30
42 | Cc1ccc(-c2cc(C(=O)O)n(C)c2)cc1 [NCGC00432669-01] | 9.89
43 | CCOc1ccc(C(=O)Nc2cc(-c3nc4cc(OC)ccc4o3)ccc2C)cc1[N+](=O)[O-] [NCGC00103318-01] | 7.85
44 | CNC(=O)c1cccc(-c2cnc(Nc3ccccc3)c3c2CCO3)c1 [NCGC00412768-01] | 18

Row | Compound | IC50 [µM]
45 | CC(CCn1cccn1)NC(=O)c1csc2nc(-c3ccc(C(F)(F)F)cc3)cn12 (stereo not shown) [NCGC00427469-01] | 9.89
46 | O=c1c2nc(N3CCC(c4ccccc4)CC3)ccc2ncn1C1CC1 [NCGC00414736-01] | 3.6
47 | Cc1ccc(Cn2cc(-c3ccncc3)cc2C(=O)O)cc1 [NCGC00432741-01] | > 30
48 | COc1ccc(CC(=O)Nc2ccc(-c3nc4ccccc4s3)c(C)c2)cc1OC [NCGC00137832-01] | > 30
49 | COc1cc(C)ccc1OCc1cc(C(=O)NCc2n[nH]c3c2CCC3)no1 [NCGC00433000-01] | 12.4
50 | COCCN1CCNc2cc(-c3cccc(N(C)C)c3)ncc2C1 [NCGC00411224-01] | 16.1
51 | CCc1noc(-c2nc(-c3ccccc3F)no2)n1 [NCGC00450040-01] | 15.7
52 | Clc1ccc(-c2cn3cc(Cc4ccccc4)sc3n2)cc1 [NCGC00102104-01] | 0.785
53 | CCOc1ccc(Nc2nc(-c3ccccc3)no2)cc1 [NCGC00422297-01] | 4.95
54 | c1c(-c2nc(C3CCOC3)no2)sc2c1CCCC2 (stereo not shown) [NCGC00443783-01] | 5.56
55 | O=C(Nc1ncc(-c2ccccc2)c2c1OCC2)c1ccccc1 [NCGC00412770-01] | 18
56 | O=C(O)c1cccc(-c2noc(-c3cccc(F)c3)n2)c1 [NCGC00168760-01] | 0.007
57 | CCOc1ccc(C(=O)Nc2ccc(-c3nc4ccccc4s3)cc2)cc1[N+](=O)[O-] [NCGC00188053-01] | > 30
58 | Cc1ccc(-c2noc([C@@H]3Cc4[nH]cnc4CN3C(=O)Nc3cccc(F)c3)n2)cc1 [NCGC00401633-01] | 20.2
59 | COCCN1CCNc2cc(-c3cccc(OC)c3)ncc2C1 [NCGC00411013-01] | 20.2
60 | CCCCOc1ccc(C(=O)Nc2ccc(-c3nc4ccccc4s3)cc2C)cc1 [NCGC00102367-01] | > 30
61 | CC(=O)NC1(C)CCN(Cc2cccc(-c3ccc4ccccc4c3)c2)C1 (stereo not shown) [NCGC00410355-01] | 11.4
62 | O=C(O)c1cccc(-c2noc(-c3cccc(Cl)c3)n2)c1 [NCGC00168763-01] | 0.007
63 | CCc1ccc(C2=CC(c3cccc(C)c3)n3c(nc4ccccc43)N2)cc1 (stereo not shown) [NCGC00140745-01] | 0.881
64 | CCc1ccc2oc(-c3cccc(NC(=O)c4cc5ccccc5o4)c3)nc2c1 [NCGC00098909-01] | 12.4
65 | Cc1ccc(-n2ncc3c(N4CCCC(C)C4)ncnc32)cc1C (stereo not shown) [NCGC00523591-01] | 0.157
66 | Cc1ccc(NC(=O)C2CCN(c3nc(-c4ccc(C(C)C)cc4)no3)CC2)c(Cl)c1 [NCGC00134062-01] | 14

Row | Compound | IC50 [µM]
67 | COc1cccc(-n2cc(CN(C)c3ncncn3)cn2)c1 [NCGC00424283-01] | > 30
68 | CCOc1ccc(-c2cc3c(=O)n(CCNC(=O)c4cccc(C#N)c4)ccn3n2)cc1 [NCGC00456938-01] | 0.7
69 | Nc1nc(N2CCC3(CC2)NC(=O)CC3C(=O)O)c2nc[nH]c2n1 (stereo not shown) [NCGC00447244-01] | > 30
70 | Cc1ccc2nc(-c3ccc(N)cc3)sc2c1[S+](=O)([O-])O [NCGC00091147-01] | 2.48
71 | COc1ccc(CC(=O)Nc2ccc(-c3nc4ccccc4s3)cc2Cl)cc1 [NCGC00137808-01] | > 30
72 | Cc1nn(-c2ccc(C(C)C)cc2)c(C)c1[C@@H]1C=C[C@@H](NC(=O)Nc2ccccc2)C1 [NCGC00421405-01] | 18
73 | Nc1nc2c(ncn2COCCO)c(=O)[nH]1 [NCGC00015061-13] | > 30
74 | O=C(Nc1ccc2c(c1)OCCO2)C1CN([S+](=O)([O-])C2CC2)CC12CCCCC2 (stereo not shown) [NCGC00439803-01] | 4.42
75 | CNC(=O)CCn1ncc2cc(OCc3ccccc3-c3cccc(NC(C)=O)c3)ccc21 [NCGC00418019-01] | 3.13
76 | Cc1cc(-c2cc3c(cn2)CN(Cc2c[nH]cn2)CCN3)ccn1 [NCGC00411148-01] | 18
77 | O=C(O)c1cccc(-c2noc(-c3cccc(C(F)(F)F)c3)n2)c1 [NCGC00168769-01] | 0.0157
78 | CN1c2cc(C(=O)Nc3ccc4c(c3)OCCO4)ccc2C(=O)N2CCCCC21 (stereo not shown) [NCGC00452420-01] | 9.89
79 | Cc1ccc(-n2ncc3c(N4CCCCCC4)ncnc32)cc1 [NCGC00139018-01] | 0.197
80 | COc1ccc(-c2noc(Nc3ccc4c(c3)OCCO4)n2)cc1 [NCGC00422336-01] | 1.57
81 | COc1cccc(C(=O)Nc2ccccc2-c2nc3ccccc3s2)c1 [NCGC00102557-01] | > 30
82 | COc1ccc(-c2nc3ccccc3s2)cc1NC(=O)c1ccccc1OC [NCGC00102097-01] | 11.1
83 | COc1ccc(Nc2cc3c(nc2OC)nc(CCc2ccccc2)n3C)cn1 [NCGC00417814-01] | 20.2
84 | CC(=O)N1CCNc2cc(-c3ccccc3F)ncc2C1 [NCGC00411070-01] | 28.5
85 | Cc1cc(-c2cc3c(cn2)CN(Cc2nccn2C)CCN3)ccn1 [NCGC00411046-01] | 16.1
